Measurements published in US9814758B2, “Inhibitors of apoptosis and uses thereof” (CENTRE NATIONAL DE LA RECHERCHE SCIENTIFIQUE-CNRS, priority 2010, dated 2017).
Non-standard residues stand in square brackets, D forms with d. Residues, ends and D or L forms follow the SMILES beside them. No end group written: not given here. Ahx = NCCCCCC(=O)O

Test system: primary cardiomyocytes
Test: STS-induced DNA fragmentation (Cell Death detection ELISA PLUS) in primary cardiomyocytes
Format: cell-based, mouse
Details: for reduction of DNA fragmentation: peptide given together with staurosporine, 1 μM, related to STS-treated cells (=100%), FIG. 5B
Method: FIG. 5: In vitro evaluation of the anti-apoptotic activity of CPPs and CPP-conjugates. Workflow and quantitation of DNA fragmentation in (A) C2C12 cells, (B) primary cardiomyocytes, (C) H9c2 cells and (D) NG108-15 cells. Data were normalized to 100% STS. Data shown are the means±SEM, with n≧5. Cells were seeded in 24-well plates and grown overnight. The next day, the cells were incubated with STS alone or with STS+1 μM peptide (in OPTI-MEM) (OPTI-MEM® is a modification of Eagle's Minimum Essential Media, buffered with HEPES and sodium bicarbonate, and supplemented with hypoxanthine, thymidine, sodium pyruvate, L-glutamine, trace elements, and growth factors) (STS concentration and incubation time for each cells are given in the figure). Thereafter, solutions were removed, replaced by complete medium and further incubated for 40 h. Following the regeneration phase, the cells were lyzed and DNA fragmentation was detected according to manufacturer's instructions (Cell Death detection ELISA^PLUS kit—Roche Diagnostics).
FIG. 6: Anti-apoptotic activity of variants of the Tat-DAXXp sequence on primary cardiomyocytes. As described in the caption of FIG. 5, the different analogues of the DAXXp sequence (see Table 2) were assessed for anti-apoptotic properties against STS (Cell Death detection ELISA^PLUS kit—Roche Diagnostics) (A-B). None of the analogues were able to protect the primary cardiomyocytes—a fact which confirms that the 16mer DAXXp has the optimal length and sequence for highest cardioprotective effect.
FIG. 7: Comparison of the murine/rat DAXXp with the human DAXXp sequence in terms of anti-apoptotic activity on C2C12 cells, primary cardiomyocytes, and H9c2. The murine DAXXp sequence conjugated to Tat (Tat-mDAXXp—SEQ ID NO: 61) which is identical to the rat DAXXp sequence (see FIG. 1B), was compared to the human construct (Tat-DAXXp) in terms of anti-apoptotic properties against STS (Cell Death detection ELISA^PLUS kit—Roche Diagnostics). The C2C12 cells and the primary cardiomyocytes used were from mice and the H9c2 cells from rat.
FIG. 9: Comparison of FADDp constructs with Tat-DAXXp in terms of anti-apoptotic activity in primary cardiomyocytes and in H9c2 cells. Quantification of DNA normalized to 100% STS. Data shown are the means±SEM, with n≧5. Cells were seeded in 24-well plates and grown overnight. The next day, the cells were incubated with STS alone or with STS+1 μM peptide (in OPTI-MEM®) (OPTI-MEM® is a modification of Eagle's Minimum Essential Media, buffered with HEPES and sodium bicarbonate, and supplemented with hypoxanthine, thymidine, sodium pyruvate, L-glutamine, trace elements, and growth factors) (STS concentration is given in the figure and incubation time is given in FIG. 5). Thereafter, solutions were removed, replaced by complete medium and further incubated for 40 hours. Following the regeneration phase, the cells were lyzed and DNA fragmentation was detected according to manufacturer's instructions (Cell Death detection ELISA^PLUS kit—Roche Diagnostics).
FIG. 10: Comparison of Tat-DAXXp and Tat-FADDp15 alone and in combination in primary cardiomyocytes (A) and in H9c2 cells (B).
Thereafter, the capacity of these peptides to inhibit apoptosis induced by staurosporine was evaluated. Apoptosis was determined using the Cell Death detection ELISA^PLUS kit (Roche) measuring the DNA fragmentation.
In most publications, anti-apoptotic peptides currently available in the art are administrated 3-4 hours prior to apoptosis induction, which is poorly relevant to a clinical application. For that reason, the protocol used in the present study included administration of the peptides together with the staurosporine. […] This was not observed with CPP alone or with the Tat-scrDAXXp or Tat-ncDAXXp negative controls. […] To better compare the results, the DNA fragmentation (described by the enrichment factor) is related to the staurosporine-treated cells (=100%).

Row | Molecule | reduction of DNA fragmentation [%] | ability to decrease cell apoptosis / protect the cells (against STS)
1 | CC[C@H](C)[C@H](NC(=O)[C@H](Cc1c[nH]cn1)NC(=O)[C@@H](NC(=O)[C@H](CCCNC(=N)N)NC(=O)CCCCCNC(=O)[C@H](CCCNC(=N)N)NC(=O)[C@H](CCCNC(=N)N)NC(=O)CCCCCNC(=O)[C@H](CCCNC(=N)N)NC(=O)[C@H](CCCNC(=N)N)NC(=O)CCCCCNC(=O)[C@@H](N)CCCNC(=N)N)[C@@H](C)CC)C(=O)N[C@@H](CC(C)C)C(=O)N[C@@H](Cc1ccccc1)C(=O)N[C@@H](CCC(N)=O)C(=O)N[C@@H](CC(N)=O)C(=O)N[C@H](CCCNC(=N)N)C(=O)N[C@@H](CCCNC(=N)N)C(=O)N[C@@H](CCSC)C(=O)N[C@@H](CCCCN)C(=O)N[C@@H](Cc1c[nH]c2ccccc12)C(=O)N[C@@H](Cc1c[nH]cn1)C(=O)N[C@@H](CCCCN)C(=O)N[C@@H](CCCCN)C(=O)N[C@@H](CCCCN)C(=O)N[C@@H](CO)C(=O)N[C@@H](CCCNC(=N)N)C(=O)N[C@@H](CCCCN)C(=O)N[C@@H](CCC(=O)O)C(=O)N[C@@H](CCCCN)C(=O)N[C@@H](CCCCN)C(=O)N[C@@H](CCC(N)=O)C(=O)N[C@H](C(=O)NCC(=O)N[C@@H](CO)C(=O)NCC(=O)N1CCC[C@H]1C(=O)N[C@@H](CC(C)C)C(=O)NCC(N)=O)[C@@H](C)O [Pip2b-DAXXp, (RXR)3-IHILFQNrRMKWHK-KKSRKEKKQTGSGPLG-NH2] (H-R[Ahx]RR[Ahx]RR[Ahx]RIHILFQN[dR]RMKWHKKKSRKEKKQTGSGPLG-NH2; N-terminus assumed) | 55 | 
2 | GRKKRRQRRRPPQKKSRKEKKQTGSGPLG-NH2 [Tat-DAXXp, GRKKRRQRRRPPQ-KKSRKEKKQTGSGPLG-NH2] | 44 | 
3 | KKSRKEKKQTGSGPLG-NH2 [DAXXp, KKSRKEKKQTGSGPLG-NH2] |  | capable of decreasing cell apoptosis
